“And” between values parts separate entries of the source, which are not always exact repeats. Equal values may be shown once.
How the values were obtained:
Conditions in all cases: incubation time: 72 h
CAL-51 [1] = test: normalised viability (% of control), CellTiter-Blue; higher = more viable cells (about 100 = DMSO control)
Procedure, shortened: (§1)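 384-well plates were pre-loaded with compound in 5 µl medium before 20 µl of breast cancer cell suspension was seeded. Following 72 h incubation, 2.5 µl CellTiter-Blue reagent was added for 2 h at 37 °C. Fluorescence was read at 560/590 nm and plates were normalised to vehicle (100) and a positive kill control (0), checked by Z'-factor. Normalised viability is reported at a single listed concentration of the series.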

DU-4475 [2] = test: as above
Procedure, shortened: as §1

HDQ-P1 [3] = test: as above
Procedure, shortened: as §1

CAL-51 [4] = test: drug sensitivity score (DSS), CellTiter-Blue viability (DSS (AUC-based score)); higher = stronger viability inhibition; extreme values may be limits of the assay
Procedure: (§2)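 DSRT with the CellTiter-Blue (resazurin reduction) viability readout, fluorescence 560/590 nm, 72 h incubation. Plates were normalised to DMSO and benzethonium chloride controls. DSS is computed from the area under the fitted dose-response curve (5 or 9 concentrations).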

MDA-MB-453 [5] = test: as above
Procedure: as §2

CAL-120 = test: drug sensitivity score (DSS), CellTox Green (DSS (AUC-based score)); higher = stronger drug effect (viability inhibition or cytotoxicity); extreme values may be limits of the assay
Procedure, shortened: (§3)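 Breast cancer cell lines (20 µl suspension) were seeded into 384-well plates holding compound at 5 concentrations in 10-fold steps over a compound-specific 10,000-fold range, then incubated 72 h. CellTox Green fluorescence (485/520 nm) was read first, then CellTiter-Glo luminescence after 10 min at room temperature. Each plate was normalised to 0.1 % DMSO and a positive kill control. The drug sensitivity score was calculated from the area under the fitted dose-response curve.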

HCC1937 = test: as above
Procedure, shortened: as §3

CAL-51 [6] = test: as above
Procedure, shortened: as §3

MDA-MB-468 = test: as above
Procedure, shortened: as §3

MDA-MB-436 = test: as above
Procedure, shortened: as §3

CAL-148 = test: as above
Procedure, shortened: as §3

DU-4475 [7] = test: as above
Procedure, shortened: as §3

BT-474 = test: as above
Procedure, shortened: as §3

CAL-85-1 = test: as above
Procedure, shortened: as §3

MFM-223 = test: as above
Procedure, shortened: as §3

MCF-10A = test: as above
Procedure, shortened: as §3

HCC1599 = test: as above
Procedure, shortened: as §3

BT-549 = test: as above
Procedure, shortened: as §3

HCC1143 = test: as above
Procedure, shortened: as §3

HDQ-P1 [8] = test: as above
Procedure, shortened: as §3

MDA-MB-453 [9] = test: as above
Procedure, shortened: as §3

MDA-MB-231 = test: as above
Procedure, shortened: as §3

Hs578T = test: as above
Procedure, shortened: as §3

| Compound | normalised viability (CAL-51 [1]; 30 nM) | normalised viability (DU-4475 [2]; 30 nM) | normalised viability (HDQ-P1 [3]; 30 nM) | drug sensitivity score (CAL-51 [4]) | drug sensitivity score (MDA-MB-453 [5]) | normalised viability (CAL-51 [1]; 7.5 nM) | normalised viability (DU-4475 [2]; 7.5 nM) | normalised viability (HDQ-P1 [3]; 7.5 nM) | normalised viability (CAL-51 [1]; 300 nM) | normalised viability (DU-4475 [2]; 300 nM) | normalised viability (HDQ-P1 [3]; 300 nM) | drug sensitivity score (CAL-120) | drug sensitivity score (HCC1937) | drug sensitivity score (CAL-51 [6]) | drug sensitivity score (MDA-MB-468) | drug sensitivity score (MDA-MB-436) | drug sensitivity score (CAL-148) | drug sensitivity score (DU-4475 [7]) | drug sensitivity score (BT-474) | drug sensitivity score (CAL-85-1) | drug sensitivity score (MFM-223) | drug sensitivity score (MCF-10A) | drug sensitivity score (HCC1599) | drug sensitivity score (BT-549) | drug sensitivity score (HCC1143) | drug sensitivity score (HDQ-P1 [8]) | drug sensitivity score (MDA-MB-453 [9]) | drug sensitivity score (MDA-MB-231) | drug sensitivity score (Hs578T) |
| --- | --- | --- | --- | --- | --- | --- | --- | --- | --- | --- | --- | --- | --- | --- | --- | --- | --- | --- | --- | --- | --- | --- | --- | --- | --- | --- | --- | --- | --- |
| C=CC(=O)N1CCC[C@@H](n2nc(-c3ccc(Oc4ccccc4)cc3)c3c(N)ncnc32)C1 | 92.2% | 84.4% | 107% | 0 | 14.8 | – | – | – | – | – | – | – | – | – | – | – | – | – | – | – | – | – | – | – | – | – | – | – | – |
| CC(=O)Nc1cccc(-n2c(=O)n(C3CC3)c(=O)c3c(Nc4ccc(I)cc4F)n(C)c(=O)c(C)c32)c1 | – | – | – | 7.72 | 6.65 | 81.6% | 0.58% | 54.1% | – | – | – | – | – | – | – | – | – | – | – | – | – | – | – | – | – | – | – | – | – |
| CCc1cncnc1N1CCN(Cc2nc3ccc(C(F)(F)F)cc3[nH]2)CC1 | – | – | – | 0 | 0 | – | – | – | 88.1% | 105% | 105% | 0 | 0 | 0 | 0 | 0 | 0 | 0 | 0 | 0 | 0 | 0 | 0 | 0 | 0 | 0 | 0 | 0 | – |
| Cc1cnc(NC(=O)Nc2cc(Br)c(C)cc2OC[C@@H]2CNCCO2)cn1 | 95.7% | 106% | 68.4% | 0 | 0 | – | – | – | – | – | – | – | – | – | – | – | – | – | – | – | – | – | – | – | – | – | – | – | – |
| NCCCNCCSP(=O)(O)O [Amifostine] | – | – | – | 0 | 0 | – | – | – | 103% | 87.7% | 63.9% | – | – | – | – | – | – | – | – | – | – | – | – | – | – | – | – | – | – |
| CC[C@H](Nc1ncnc2[nH]cnc12)c1nc2cccc(F)c2c(=O)n1-c1ccccc1 [CAL-101] | – | – | – | 0 | 2.74 | – | – | – | 85.3% | 91.1% | 58% | – | – | – | – | – | – | – | – | – | – | – | – | – | – | – | – | – | – |
| O=C(O)CCCCC(CCSCc1ccccc1)SCc1ccccc1 (centres undefined) [CPI-613] | – | – | – | – | – | – | – | – | – | – | – | 0 | 0 | 0 | 0 | 0 | 0 | 0 | 0 | 0.118 | 0 | 0 | 0 | 0 | 0 | 0 | 0 | 0 | 0 |
| Cc1ccc(-c2cc(C(F)(F)F)nn2-c2ccc(S(N)(=O)=O)cc2)cc1 [Celecoxib] | – | – | – | 0 | 1.65 | – | – | – | 97% | 96% | 72.2% | 0 | 0 | 0 | 0 | 0 | 0 | 0 | 0 | 0 | 0 | 0 | 0 | 0 | 0 | 0 | 0 | 0 | – |
| O=C(/C=C/c1cccnc1)NCCCCC1CCN(C(=O)c2ccccc2)CC1 [Daporinad] | – | – | – | – | – | – | – | – | – | – | – | 0 | 10.4 | 0 | 0.89 | 0 | 0 | 0 | 0 | 0 | 0 | 0 | 0 | 0 | 0 | 0 | 0 | 0 | 0 |
| Nc1ncn([C@H]2C[C@H](O)[C@@H](CO)O2)c(=O)n1 [Decitabine] | – | – | – | – | – | – | – | – | 99% and 92.1% | 86% and 85.5% | 65.3% and 81.8% | 0 | 0 | 7.63 | 0.872 | 0 | 0 | 0 | 0 | 2.72 | 0 | 0 | 0 | 0 | 0 | 0 | 0.571 | 0 | 0 |
| O=C(/C=C/c1cccnc1)NCCCCC1CCN(C(=O)c2ccccc2)CC1 [FK-866] | 48.8% | 31.4% | 64.3% | 14.5 | 27.2 | – | – | – | – | – | – | – | – | – | – | – | – | – | – | – | – | – | – | – | – | – | – | – | – |
| CC[C@H](Nc1ncnc2[nH]cnc12)c1nc2cccc(F)c2c(=O)n1-c1ccccc1 [GS-1101] | – | – | – | – | – | – | – | – | – | – | – | 0 | 0 | 0 | 3.82 | 0 | 0 | 0 | 0 | 0 | 0 | 0 | 0 | 0 | 0 | 0 | 0 | 4.13 | 0 |

From the supplement of paper PMC4862054
